Reference: patent US20200023080A1, “COMPOSITIONS AND METHOD FOR THE TREATMENT AND DETECTION OF COLON CANCER” (priority 2015, published 2020)
Positions of bridges follow the written chain, without caps; N, C: chain ends. Non-standard residues stand in square brackets, D forms with d. No end group written: not given here. IRDye‑680LT = infrared dye IRDye-680LT, conjugated via NHS ester

How the values were obtained:
GC-C receptor = GC-C receptor (Homo sapiens, UniProt P25092); details: cited from earlier work
[1] = biological target: T1, GC-C expressed on T84 cells (Homo sapiens, UniProt P25092); assay: Binding of IR680-SP-333 probe to T84 cell monolayer; details: 4° C. for 1 hour, FIG. 3
T1 construct: endogenous in cells; host or cells: T84 human colon carcinoma cells
Method: Experiments were performed to establish binding conditions to reduce background and to enhance specific binding. These experiments concluded that the age of T84 monolayer should be between 7-9 days after seeding to allow maximum expression of GC-C on the cell surface. Next, we established the optimal binding buffer, incubation time to allow binding of probe to T84 cells and temperature of binding incubation to minimize endocytosis. The optimal conditions for specific binding of probe to T84 cells are briefly described here. Human T84 cells were grown to confluence in 96 black clear bottom plates. Media was aspirated and the plate was blocked with 200 ul/well of blocking buffer (DMEM/F12+150 mM NaCl+20 mM Sodium phosphate dibasic, pH was adjusted to 6.0 with 1N HCl) for 2 hours in cell culture incubator at 37° C.

[2] = tested on: cGMP production in T84 cells; assay: T84 cGMP bioassay; type: cell-based, Human; details: FIG. 6
[3] = tested on: colonic adenomas in Apc^+/Min-FCCC mice; assay: Ex-vivo imaging of excised colons incubated with probe (IVIS Spectrum); details: 0.1 μM probe; for signal / ability to detect polyps in older mice: 4 and 6 month old mice
Method: Ex-vivo and in vivo studies have been performed to evaluate the specificity of the IR680-SP-333 probe for colonic adenomas in Apc^+/Min-FCCC mice. IR680-SP-333 was prepared in DMEM/F-12 media containing 20 mM sodium phosphate buffer and 3% BSA, pH6; the same media used for in vitro experiments. Based on data from an initial pilot study, incubation of tissue with 0.1 μM IR680-SP-333 for 30 min at 37° C. was selected as the optimal condition for ex-vivo studies. Epifluorescence images were acquired as follows: excitation wavelength=640 nm, detection wavelength=700 nm, exposure time=auto-3 min, F-stop=1, binning=1 (“small” setting), field of view=0.3 cm (setting “C”). […] To eliminate the contribution of the age of mouse to the observed heterogeneity in probe binding, an in depth imaging study was performed in mice of various ages (2, 3, 4, 5 and 6 months). In this ex-vivo study, mice were euthanized and colons excised, opened longitudinally, and washed with PBS. Colon tissues were incubated with 0.1 μM IR680-SP-333 at 37° C. for 30 min. After incubation, the tissues were washed with PBS (4 times) and imaged in the IVIS Spectrum, using the settings described above. Careful review of the resulting images lead to three major conclusions: 1) the binding of the IR680-SP-333 probe to colorectal polyps is size dependent. […] 2) because the signal varied with polyp size, binding was enhanced in mice 2-3 months of age where the majority of colorectal polyps were smaller (≤3 mm in diameter) (FIG. 7). As the mice aged, the colorectal polyps increased in size and the ability of probe to detect the polyps decreased (FIG. 8). […] Because the incidence of colorectal polyps is higher in mice 3 months (70%) vs. 2 months (45%) of age, a decision was made to use mice 10-12 weeks of age for all subsequent in vivo IR680-SP-333 analyses to minimize the number of animal that needed to be screened for tumors. 3) signal of the IR680-SP-333 probe was high at the proximal and distal ends of the colon even in the absence of polyps. Similar nonspecific binding of unknown origin has been observed in previous experiments with independent probes at these same extreme regions.

[4] = biological target: T2, GC-C binding sites on T84 cells (Homo sapiens, UniProt P25092); assay: Binding of IR680-SP-333 probe to suspension of T84 cells; details: 0.5 μM probe, 4° C. for 30 mins, FIG. 4
T2 construct: endogenous in cells; host or cells: T84 human colon carcinoma cells
Method: Next, we performed binding of probe to suspension of T84 cells. In this set of experiments, cells cultured for 9 days in T75 flasks were harvested by scraping and suspended in pre-chilled binding media. Different densities of cells were incubated with […] IR680-SP-333 (final concentration 0.5 μM) in pre-chilled binding buffer at 4° C. for 30 mins. The IR680-SP-333 was diluted with unlabeled SP-333 to adjust the final concentration of probe 0.5 μM. This dilution was necessary to saturate the available GC-C binding sites on 40,000 cells.

[5] = tested on: colon polyps in Apc^+/Min-FCCC mice; assay: In vivo gavage of probe, imaging of excised colon and histopathology
Method: Following the ex-vivo binding studies, an experiment was performed to assess the ability of the probe to remain intact as it passed through the GI tract and bind to colonic lesions. In this in vivo experiment, Apc^+/Min-FCCC mice (10-12 wks of age) were subjected to a colonoscopic examination prior to probe administration, according to a protocol established previously (Hensley, Gastrointestinal Endoscopy group). Mice with confirmed colon polyps were randomized to receive IR680-SP-333 at 0.5 or 0.05 mg/kg body weight by gavage. Prior to probe administration, mice were fasted overnight and provided Pedialyte ad libitum for bowel cleansing. Mice were gavaged with IR680-SP-333 and euthanized at 30, 60, 90 and 120 min post treatment. At the time of euthanasia, the colon was excised, opened its entire length and rinsed with saline. Each colon was then placed on a plastic ruler and imaged in an IVIS Spectrum system using the settings described above for the ex-vivo experiments. Immediately following image acquisition, the entire colon was placed intact on a plastic ruler in 10% normal buffered formalin and areas positive and negative for probe signal were collected for histopathological evaluation. […] Evaluation of additional doses of IR680-SP-333 probe (0.0158 and 0.158 mg/kg body weight) confirmed that gavaging mice with IR680-SP-333 at 0.05 mg/kg body weight and imaging 30 min post treatment yielded the greatest differential in signal between the non-neoplastic and neoplastic colonic mucosa.
Colon tissues with strong signal (tumor) and corresponding background signal (nonneoplastic control) were processed for histopathology evaluation and reviewed bin a blinded manner. […] This heterogeneity made it impossible to standardize the epi-fluorescence scale and classify positive and negative signals based solely on the epi-fluorescence value. […] In FIG. 12 (mouse ID 12201), strong signal is localized to a hyperplastic polyp (HP); an area of high proliferation; providing additional support for the lack of correlation between the intensity of the probe signal and size/type of colonic lesion. […] The probe IR-680-SP-333 may also be useful in detection of colorectal metastasis in liver and other organs.

T1 sequence (P25092 24-1073): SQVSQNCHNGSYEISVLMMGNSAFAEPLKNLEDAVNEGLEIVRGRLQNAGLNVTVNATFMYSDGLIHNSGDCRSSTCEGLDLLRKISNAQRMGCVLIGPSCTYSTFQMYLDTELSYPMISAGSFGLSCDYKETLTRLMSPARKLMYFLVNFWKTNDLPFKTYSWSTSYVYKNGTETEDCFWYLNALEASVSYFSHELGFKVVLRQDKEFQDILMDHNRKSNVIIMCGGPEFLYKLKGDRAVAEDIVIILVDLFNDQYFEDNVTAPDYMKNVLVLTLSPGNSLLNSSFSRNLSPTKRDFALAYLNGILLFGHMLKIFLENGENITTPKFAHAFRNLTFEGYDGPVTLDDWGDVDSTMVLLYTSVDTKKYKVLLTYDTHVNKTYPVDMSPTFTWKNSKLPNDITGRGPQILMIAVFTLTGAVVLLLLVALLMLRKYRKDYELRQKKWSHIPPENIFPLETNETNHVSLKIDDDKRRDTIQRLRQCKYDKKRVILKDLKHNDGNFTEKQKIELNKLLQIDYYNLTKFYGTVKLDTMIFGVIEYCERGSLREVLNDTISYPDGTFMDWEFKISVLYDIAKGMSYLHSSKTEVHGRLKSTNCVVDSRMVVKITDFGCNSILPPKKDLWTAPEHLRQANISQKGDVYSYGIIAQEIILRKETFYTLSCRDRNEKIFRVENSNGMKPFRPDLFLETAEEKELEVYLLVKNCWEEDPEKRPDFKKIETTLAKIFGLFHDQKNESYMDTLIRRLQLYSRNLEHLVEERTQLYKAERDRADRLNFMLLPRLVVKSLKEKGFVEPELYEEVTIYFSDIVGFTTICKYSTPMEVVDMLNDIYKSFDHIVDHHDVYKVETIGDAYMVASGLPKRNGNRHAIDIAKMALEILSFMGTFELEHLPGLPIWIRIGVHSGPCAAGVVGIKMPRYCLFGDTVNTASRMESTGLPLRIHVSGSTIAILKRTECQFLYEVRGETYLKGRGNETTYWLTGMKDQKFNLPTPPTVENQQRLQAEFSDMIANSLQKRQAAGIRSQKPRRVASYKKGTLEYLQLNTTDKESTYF
T2 sequence (P25092 24-1073): as above
Chain of GC-C receptor (P25092 24-1073): as above

Asn^1-Asp^2-Asp^3-Cys^4-Glu^5-Leu^6-Cys^7-Val^8-Asn^9-Val^10-Ala^11-Cys^12-Thr^13-Gly^14-Cys^15-Leu^16 (NDDCELCVNVACTGCL; disulfide 4-12, 7-15) [Uroguanylin, a physiological ligand of GC-C, a 16 amino acid peptide with two disulfide bonds]
affinity for the GC-C receptor (GC-C receptor): nanomolar affinity

IR680-SP-333: SP-333 labeled at the amine group with IRDye-680LT NHS ester; bioactive infrared fluorescence probe ({IRDye‑680LT}-[dN]DECELCVNVACTGC[dL]; disulfide 4-12, 7-15)
binding of probe in the presence of 100-fold excess of unlabeled SP-333 [1]: considerably reduced | binding of probe to T84 cells (fluorescence ex680, em715) [1]: specifically bound to GC-C expressed on T84 cells in a dose-dependent manner | ability to stimulate cGMP production in T84 cells [2]: active | level of cGMP production compared to unconjugated SP-333 [2]: slightly lower level | signal at the proximal and distal ends of the colon in the absence of polyps ([3]; 30 min): high | signal / ability to detect polyps in older mice ([3]; 30 min, FIG. 8): decreased | signal / ability to detect polyps in older mice ([3]; 30 min, FIG. 8, listed as SP-333-IR680): weaker than that observed in younger animals | binding in mice 2-3 months of age ([3]; 30 min, polyps mostly ≤3 mm, FIG. 7): enhanced | binding to colorectal polyps versus surrounding normal colonic mucosa ([3]; 30 min at 37° C.): greater binding to colorectal polyps than to the surrounding normal colonic mucosa | binding to every colorectal polyp ([3]; 30 min at 37° C.): did not bind to every colorectal polyp | probe signal by polyp size ([3]; 30 min at 37° C., FIG. 7): higher in polyps ≤3 mm in diameter than in those with a diameter >4 mm | binding of probe to cell suspension in the presence of 100-fold excess of SP-333 [4]: abolished | differential between signal of colorectal polyps and background of adjacent normal colonic mucosa ([5]; gavage 0.05 mg/kg body weight, imaged 30 min post treatment, FIG. 9A): best differential | nonspecific signal at proximal and distal ends of colon ([5]; gavage 0.5 mg/kg body weight, FIG. 9B): increased significantly | differential between tumor and normal tissue at higher dose ([5]; gavage 0.5 mg/kg body weight, FIG. 9B, 0.5 mg/kg): failed to improve the difference in signal between neoplastic and nonneoplastic mucosa significantly | differential between tumor and normal tissue at higher dose ([5]; gavage 0.5 mg/kg body weight, FIG. 9B, listed as SP-333-IR680, 0.5 mg/kg): failed to improve the differential between tumor and normal tissue | nonspecific binding at longer interval between dosing and imaging ([5]; gavage, ≥90 min between dosing and imaging, FIG. 9C): increase in nonspecific binding | correlation of probe signal intensity with tumor size or histological subtype ([5]; histopathology, blinded review): did not correlate with either tumor size or the histological subtype of lesion | probe signal in hyperplastic polyp (HP) ([5]; mouse ID 12201, FIG. 12): strong signal | probe signal in flat/indeterminate adenoma ([5]; mouse ID 12276, FIG. 11): weaker signal | probe signal in small gross lesion (1-mm in size) ([5]; mouse ID 12276, FIG. 11): very strong probe signal | probe signal in adenoma ([5]; mouse ID 12281, FIG. 10): intermediate signal intensity | probe signal in areas of hyperproliferation (HP) ([5]; mouse ID 12281, FIG. 10): strongest probe signal | probe signal in micro-adenoma compared to surrounding normal colonic mucosa ([5]; mouse ID 12281, FIG. 10): slight increase in signal | background signal in normal colonic mucosa ([5]; same dose and same post treatment time interval): varied between mice receiving the same treatment regimen
